Data set [1] deals with E. coli (ATCC 25922). The data set can be described thus: Minimal Inhibitory Concentration (MIC) assay. The class given is cell-based. The note with it: Escherichia coli, ATCC25922; CAMHB, 20 hours at 35° C.; read-out: MIC (μg/mL) E. coli ATCC 25922. The protocol: The in vitro potency of compounds to inhibit E. coli (ATCC 25922) growth was assessed by MIC (Minimal Inhibitory Concentration) assay. Samples were prepared from 10 mM DMSO stock solutions. After serial 2-fold dilution in DMSO in a master plate (Greiner, Cat No: 651201), 180 μL sterile distilled water was added to 20 μL each aliquot of the samples. Then 10 μL diluted compounds were transferred into a new assay plate (Costar, 3599).
The growth medium […] Mueller Hinton Broth (CAMHB) was prepared by adding the 20 mg per liter CaCl2 and 20 mg per liter MgCl2 into the MHB medium (Jianglai Company, sterilized).
Vials of each of the test microorganisms were maintained frozen in the vapor phase of a liquid nitrogen freezer. Took out the bacteria E. coli ATCC 25922 (KWIKSTIK, 0335K) from liquid nitrogen freezer, thawed it in room temperature, and diluted the bacterial in the CAMHB medium to achieve a final inoculum of 5×10^5 CFU/mL, 90 μL CAMHB with bacteria was dispensed to the assay plate and pipetted 5 times.
Then the assay plates were incubated for 20 hours at 35° C. in ambient air. Following incubation, the MIC (μg/mL), the lowest concentration of drug that inhibits visible growth of the microorganism was read and recorded throw the microscope.

The subject of data set [2] is K. pneumoniae (ATCC10031). Put plainly: 50% growth inhibitory concentration (IC50) determination assay, K. pneumoniae. The class given is cell-based. To be noted: Klebsiella pneumoniae, ATCC10031; growth inhibition, Iso-Sensitest broth, OD 600 nm over 16 h; * = detection limit; read-out: IC50 (μM) K. pneumoniae ATCC10031. As to the method:
(§1) The in vitro antimicrobial activity of the compounds against E. coli (BW25113, obtained from Coli Genetic Stock Center, #7636) and K. pneumoniae (ATCC10031) was determined according to the following procedure:
(§2) The assay used a 10-points Iso-Sensitest broth medium to measure quantitatively the in vitro activity of the compounds against E. coli BW25113 and K. pneumoniae ATCC 10031.
(§3) Stock compounds in DMSO were serially two-fold diluted (range from 50 to 0.097 μM final concentration) in 384 wells microtiter plates and inoculated with 49 μL the bacterial suspension in Iso-Sensitest broth medium to have a final cell concentration of ˜5×10^5 CFU/mL in a final volume/well of 50 μL/well. Microtiter plates were incubated at 35±2° C.
(§4) Bacterial cell growth was determined with the measurement of optical density at λ=600 nm each 20 minutes over a time course of 16 h.
(§5) Growth inhibition was calculated during the logarithmic growth of the bacterial cells with determination of the concentration inhibiting 50% (IC50) of the growth.

The nature of data set [3]: Cytotoxicity assay (HepG2, CellTiter-Blue). The note with it: human; HepG2 cells, 3 days treatment; * = detection limit. The class given is cell-based. The protocol: The cytotoxicity of compounds of present invention was assessed by HepG2 assay. HepG2 cells (ATCC HB-8065™) were seeded into 96-well plates (1.2×10^4 cells per well) and treated with compounds for 3 days, cell viability was measured at day 3 post compound treatment using the CellTiter-Blue® Cell Viability Assay (Promega, Cat. No. G8082). 20 μL of Cell titer blue buffer were added to each well of the cells, incubated for 3 hours at 37° C., and the fluorescence value was measured by a plate reader (Molecular Device SpectraMax M2). The CC50 value of each compound is plotted with GraphPad Prism using four parameter logistic equation.

The subject of data set [4] is E. coli (BW25113). The data set can be described thus: 50% growth inhibitory concentration (IC50) determination assay, E. coli. The class given is cell-based. To be noted: Escherichia coli, BW25113; growth inhibition, Iso-Sensitest broth, OD 600 nm over 16 h; read-out: IC50 (μM) E. coli K12 BW25113. The protocol: as §1, §2, §3, §4, §5
A short description of data set [5]: Lyophilisation Solubility Assay (LYSA). The class given is physicochemical. To be noted: aqueous buffer, thermodynamic from solid; 0.05 M phosphate buffer, pH 6.5; * = detection limit. The protocol:
The solubility of compounds of present invention was assessed by LYSA assay. Samples were prepared in duplicate from 10 mM DMSO stock solutions (20 μL) diluted in 30 μL pure DMSO. After evaporation of DMSO with a centrifugal vacuum evaporator, the residue was dissolved in 0.05 M phosphate buffer (150 μL, pH 6.5), stirred for one hour and shook for two hours. After one night, the solution was filtered using a microtiter filter plate. Then the filtrate and its 1/10 dilution were analyzed by HPLC-UV. In addition a four-point calibration curve was prepared from the 10 mM stock solutions and used for the solubility determination of the compounds.

Molecules are shown by their SMILES. ≈ marks a conversion by molar mass, not a printed value. Some results are limits rather than exact numbers.

Turning to `CNc1cc(F)cc2c1[nH]c1ncc(-c3cncc(C#N)c3)c(-n3cc(C#N)cn3)c12` [Example 1.09, 5-[4-(4-Cyanopyrazol-1-yl)-6-fluoro-8-(methylamino)-9H-pyrido[2,3-b]indol-3-yl]pyridine-3-carbonitrile], the MIC in data set [1] is 0.153 µg/mL (≈ 0.375 µM). In addition, the results for the IC50 in data set [2] and in data set [4] were no more than 0.098 µM and 0.346 µM, respectively. For the same molecule, the CC50 (as a rule, the concentration that lowers cell viability or growth by half) at 3 days in data set [3] is 14600 nM.
For the molecule `CCNc1cc(F)cc2c1[nH]c1ncc(-c3cnc(NC4CCNCC4)nc3)c(-n3ccc(C(F)(F)F)n3)c12` [Example 1.10, N-Ethyl-6-fluoro-3-[2-(4-piperidylamino)pyrimidin-5-yl]-4-[3-(trifluoromethyl)pyrazol-1-yl]-9H-pyrido[2,3-b]indol-8-amine], the solubility (thermodynamic) (in general, solubility found after equilibrating the solid with the medium) in data set [5] was 7.6 µg/mL (≈ 14.1 µM).
Turning to `CNc1cc(F)cc2c1[nH]c1ncc(-c3cncc(C#N)c3)c(-n3cc(CN)c(C(F)(F)F)n3)c12` [Example 1.14, 5-[4-[4-(Aminomethyl)-3-(trifluoromethyl)pyrazol-1-yl]-6-fluoro-8-(methylamino)-9H-pyrido[2,3-b]indol-3-yl]pyridine-3-carbonitrile], in data set [3], the 50% cytotoxic concentration (CC50) at 3 days was 13300 nM.
`CCNc1cc(F)cc2c1[nH]c1ncc(-c3cnc(OC)nc3)c(-n3ncc4c3CNC4)c12` [Example 1.21, 4-(5,6-Dihydro-4H-pyrrolo[3,4-c]pyrazol-1-yl)-N-ethyl-6-fluoro-3-(2-methoxypyrimidin-5-yl)-9H-pyrido[2,3-b]indol-8-amine]: it took 30500 nM to reach half-maximal cytotoxicity in data set [3] (CC50 at 3 days).
On to `CCNc1cc(F)cc2c1[nH]c1ncc(-c3cncc(C#N)c3)c(-n3nc(C(F)(F)F)c4c3CNC4)c12` [Example 1.34, 5-[8-(Ethylamino)-6-fluoro-4-[3-(trifluoromethyl)-5,6-dihydro-4H-pyrrolo[3,4-c]pyrazol-1-yl]-9H-pyrido[2,3-b]indol-3-yl]pyridine-3-carbonitrile], for which the MIC in data set [1] amounted to 0.727 µg/mL (≈ 1.44 µM). For the same molecule, the IC50 (in general, the point on the concentration scale where inhibition reaches its midpoint) was no more than 0.098 µM in data set [2] and 2 µM in data set [4]. This molecule returned a CC50 at 3 days in data set [3] of 14100 nM.
Consider `CCNc1cc(F)cc2c1[nH]c1ncc(-c3cnc(OC)nc3)c(-n3nc(C(F)(F)F)c4c3CNC4)c12` [Example 1.35, N-Ethyl-6-fluoro-3-(2-methoxypyrimidin-5-yl)-4-[3-(trifluoromethyl)-5,6-dihydro-4H-pyrrolo[3,4-c]pyrazol-1-yl]-9H-pyrido[2,3-b]indol-8-amine], for which, in data set [1], the MIC came to 0.601 µg/mL (≈ 1.17 µM). Also, in data set [3], half-maximal cytotoxicity (CC50 at 3 days) was put at 58000 nM.
In the case of `CCNc1cc(F)cc2c1[nH]c1ncc(-c3cncc(N)c3)c(-n3ccc(C(F)(F)F)n3)c12` [Example 1.37, 3-(5-Amino-3-pyridyl)-N-ethyl-6-fluoro-4-[3-(trifluoromethyl)pyrazol-1-yl]-9H-pyrido[2,3-b]indol-8-amine], the results for the IC50 in data set [2] and in data set [4] were no more than 0.098 µM and 1.32 µM, respectively. In data set [3], this molecule yielded a CC50 at 3 days of 11100 nM.
Molecule `CNc1cc(F)cc2c1[nH]c1ncc(-c3cnc(OC)nc3)c(-n3nc(C#N)c4c3CNC4)c12` [Example 1.38, 1-[6-Fluoro-3-(2-methoxypyrimidin-5-yl)-8-(methylamino)-9H-pyrido[2,3-b]indol-4-yl]-5,6-dihydro-4H-pyrrolo[3,4-c]pyrazole-3-carbonitrile] had a CC50 at 3 days in data set [3] of 11000 nM. In other words, the double-digit micromolar range.
On to `CCNc1cc(F)cc2c1[nH]c1ncc(-c3cncc(C(=O)NC)c3)c(-n3ccc(C(F)(F)F)n3)c12` [Example 1.43, 5-[8-(Ethylamino)-6-fluoro-4-[3-(trifluoromethyl)pyrazol-1-yl]-9H-pyrido[2,3-b]indol-3-yl]-N-methyl-pyridine-3-carboxamide], for which the values for the IC50 in data set [2] and in data set [4] were no more than 0.098 µM and 0.796 µM, respectively. In data set [3], the midpoint of cytotoxicity, the CC50 at 3 days, lay at 11100 nM.
The molecule `CCNc1cc(F)cc2c1[nH]c1ncc(-c3cncc(CN)c3)c(-n3ccc(C(F)(F)F)n3)c12` [Example 1.45, 3-[5-(Aminomethyl)-3-pyridyl]-N-ethyl-6-fluoro-4-[3-(trifluoromethyl)pyrazol-1-yl]-9H-pyrido[2,3-b]indol-8-amine] came in with a thermodynamic solubility in data set [5] of 16 µg/mL (≈ 34.1 µM). The IC50 was no more than 0.098 µM in data set [2] and 2.04 µM in data set [4].
`CCNc1cc(F)cc2c1[nH]c1ncc(-c3cnc(C(C)O)nc3)c(-n3ccc(C(F)(F)F)n3)c12` (stereo not shown) [Example 1.54, 1-[5-[8-(ethylamino)-6-fluoro-4-[3-(trifluoromethyl)pyrazol-1-yl]-9H-pyrido[2,3-b]indol-3-yl]pyrimidin-2-yl]ethanol]: in data set [1], the MIC was 0.284 µg/mL (≈ 0.585 µM). Besides, the half-maximal inhibitory concentration (IC50) was 0.111 µM in data set [2] and 1.12 µM in data set [4]. In data set [3], this molecule had a CC50 at 3 days of 12400 nM.
Regarding `CCNc1cc(F)cc2c1[nH]c1ncc(-c3cnc([C@H](C)O)nc3)c(-n3ccc(C(F)(F)F)n3)c12` [Example 1.57, (1S)-1-[5-[8-(ethylamino)-6-fluoro-4-[3-(trifluoromethyl)pyrazol-1-yl]-9H-pyrido[2,3-b]indol-3-yl]pyrimidin-2-yl]ethanol], the MIC in data set [1] came to 0.284 µg/mL (≈ 0.585 µM). Besides, the 50% inhibitory concentration (IC50) in data set [2] is no more than 0.098 µM; in data set [4] it was 0.631 µM.
For `CCNc1cc(F)cc2c1[nH]c1ncc(-c3cnc(OCC(C)(C)C(=O)O)nc3)c(-n3ccc(C(F)(F)F)n3)c12` [Example 2.03, 3-[5-[8-(Ethylamino)-6-fluoro-4-[3-(trifluoromethyl)pyrazol-1-yl]-9H-pyrido[2,3-b]indol-3-yl]pyrimidin-2-yl]oxy-2,2-dimethyl-propanoic acid], the MIC in data set [1] was found to be 0.653 µg/mL (≈ 1.17 µM). The cytotoxic concentration (CC50) at 3 days in data set [3] is 20700 nM.
Take `CCNc1cc(F)cc2c1[nH]c1ncc(-c3cncc(C(=O)NOC)c3)c(-n3ccc(C(F)(F)F)n3)c12` [Example 3.03, 5-[8-(Ethylamino)-6-fluoro-4-[3-(trifluoromethyl)pyrazol-1-yl]-9H-pyrido[2,3-b]indol-3-yl]-N-methoxy-pyridine-3-carboxamide]: the IC50 in data set [2] was no more than 0.098 µM; in data set [4] it was 0.775 µM. The same molecule returned a 50% cytotoxic concentration (CC50) at 3 days in data set [3] of 13000 nM.
Consider `CCNc1cc(F)cc2c1[nH]c1ncc(-c3cnc(C(N)=O)nc3)c(-n3ccc(C(F)(F)F)n3)c12` [Example 3.04, 5-[8-(Ethylamino)-6-fluoro-4-[3-(trifluoromethyl)pyrazol-1-yl]-9H-pyrido[2,3-b]indol-3-yl]pyrimidine-2-carboxamide], for which the MIC in data set [1] is 0.142 µg/mL (≈ 0.293 µM). Further, the 50% inhibitory concentration (IC50) was no more than 0.098 µM in data set [2] and 0.204 µM in data set [4]. It took 20900 nM to reach half-maximal cytotoxicity in data set [3] (CC50 at 3 days).
As for `CCNc1cc(F)cc2c1[nH]c1ncc(-c3cncc(C(=O)NCCOC)c3)c(-n3ccc(C(F)(F)F)n3)c12` [Example 3.06, 5-[8-(ethylamino)-6-fluoro-4-[3-(trifluoromethyl)pyrazol-1-yl]-9H-pyrido[2,3-b]indol-3-yl]-N-(2-methoxyethyl)pyridine-3-carboxamide], the MIC in data set [1] is 0.734 µg/mL (≈ 1.36 µM). The IC50 in data set [2] was no more than 0.098 µM; in data set [4], 1.45 µM.
With `CCNc1cc(F)cc2c1[nH]c1ncc(-c3cncc(Cc4n[nH]c(=O)o4)c3)c(-n3ccc(C(F)(F)F)n3)c12` [Example 6.01, 5-[[5-[8-(ethylamino)-6-fluoro-4-[3-(trifluoromethyl)pyrazol-1-yl]-9H-pyrido[2,3-b]indol-3-yl]-3-pyridyl]methyl]-3H-1,3,4-oxadiazol-2-one], the MIC in data set [1] worked out at 0.731 µg/mL (≈ 1.36 µM). Also, the half-inhibitory concentration (IC50) in data set [2] is 0.441 µM; in data set [4], 0.827 µM. In data set [3], this molecule returned a 50% cytotoxic concentration (CC50) at 3 days of 11400 nM.

(Values after patent publication US20210309658A1, “ARYL COMPOUNDS FOR THE TREATMENT AND PROPHYLAXIS OF BACTERIAL INFECTION” (Hoffmann-La Roche Inc., priority 2018, published 2021).)
